Consider 7 compounds from US20150216182A1, “COMPOSITIONS AND METHODS OF THE ATTRACTION AND REPULSION OF INSECTS” (Olfactor Laboratories, Inc., priority 2012, published 2015).

SMILES strings stand for the structures. Entries after “also recorded” stand apart in the source; their conditions may differ. Where a name gives a salt, the structure may show the parent alone. Read-outs that look alike come from different tables or passages of the source.

In one experiment the test system is female mosquitoes. Nature of the experiment: whole plant or invertebrate. The note with it: 2 h; for mortality at 200 µg/mL: read-out: % mortality with 0.2 mg/ml; for mortality at 2000 µg/mL: read-out: % mortality with 2 mg/ml.
The next experiment deals with cpA neurons. Nature of the experiment: extracellular single-sensillum electrophysiology: activation of cpA neuronal activity. The note with it: for Class: Table 6, single compounds, increase over baseline cpA neuronal activity; for Comp A Class: component A tested individually.
The next experiment concerns Aedes aegypti mosquitoes. Nature of the experiment: netsphere assay. The format is in vivo. To be noted: baited BG-Sentinel trap, overnight collection; FIG. 3. As to the method: The netsphere assay was conducted in a semi-field containment area. The containment area was 1,000 square feet in size and environmental cues such as temperature, humidity, lighting and airflow were controlled to replicate conditions that Aedes aegypti mosquitoes would encounter in the wild. The containment area was conditioned for 2 hours prior to experimentation to allow for equalization of environmental conditions. Fifty female and five male mosquitoes were then released into the chamber and given one hour to acclimate to the environment. Following this, a BG-Sentinel trap (Biogents AG, Regensburg, Germany) was baited with either cyclopentanone, 2-pentanone or 2,4-lutidine and placed in the chamber in the presence of a non-baited BG-Sentinel (as a negative control for trap attraction). The collection was allowed to proceed overnight during which lighting conditions in the chamber were set to mimic those of starlight. The following day, mosquitoes caught in the trap were frozen at −20° C. and counted. These counts were compared to control experiments where CO2 from a tank, at a flow rate of 250 ml/min, was used as bait.

The test system of experiment [1] is bed bugs (Cimex lectularius). Nature of the experiment: bed bug repellency assay. The format is in vivo. The note with it: compound or combination on filter paper harborage, ten bed bugs. A digest of the protocol:
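Ten Cimex lectularius per talc-lined petri dish chose between folded filter-paper harborages treated with isopropyl alcohol alone or compound in isopropyl alcohol […], dried before use. Bugs moved freely 5 min; occupancy beneath each tent recorded, with a solvent-only pairing as control.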

Another experiment deals with larvae. Nature of the experiment: larvicidal activity assay. The class given is in vivo. To be noted: for pest or weed control at 0.25 %: read-out: % Lethality with 0.25% compound conc.; for pest or weed control at 100 ppm: read-out: % Lethality at 100 ppm. As to the method:
A 6-well plate (Corning Life Sciences, Tewksbury, Mass.) is used to test a compound's larvicidal activity. […] After a 24 hour exposure, the number of dead larvae are counted and recorded.
The results are presented in Table 17 as % lethality (the number of dead larvae divided by the total number of larvae).

The subject of a further experiment is Aedes aegypti. Nature of the experiment: landing assay. The class given is in vivo. The note with it: mesh treated with 1% in acetone, FIG. 2; for number of landings: 5 minute time course. The source says:
Behavior assays were developed to aid in the evaluation of compounds and compositions of the present invention. These assays include the landing assay and the netsphere assay. These assays were utilized to determine the effectiveness of said compounds and compositions with regard to attracting or repelling mosquitoes of the species Aedes aegypti. Due to the highly conserved nature of the carbon dioxide receptor across the order Diptera, the results obtained for Aedes aegypti are likely to be intuitive with regard to other members of the mosquito family Culicidae as well as with regard to other dipteran family members.
The landing assay is an assay used to test for attraction toward human skin. A human gloved hand with an opening cutout protected by 2 layers of mesh was inserted into a 12×12×12 inch cage of female mosquitoes. The first layer of mesh was used to protect the human from chemical contact as well as mosquito contact. A second layer of mesh was treated with a chemical compound or composition that had been dissolved at a concentration of 1% in acetone and allowed to dry on said mesh for three minutes. This second layer of mesh was placed on top of the first mesh layer. The two mesh layers were separated by outer magnetic strips to hold the layers in place on the glove. This experimental design allows the test subjects, starved female mosquitoes, to be exposed to human skin odors as well as the compound or composition concurrently. The cage contained 30 female and 3 male mosquitoes. The landing of mosquitoes on the treated surface was videotaped over a 5 minute time course and the number of landings during that time period was recorded. Mesh treated with acetone alone was used as a negative control. This experiment was done in triplicate for each compound or composition tested. The results from one such experiment are pictured in FIG. 2.

The test system of a further experiment is bed bugs. Nature of the experiment: bed bug luring assay. To be noted: cottonball with 100 microliters solution, total 100 mg compound(s), 10 bed bugs, overnight. The format is in vivo. As to the method:
Assays were conducted to measure the ability of compounds and compound combinations to attract bed bugs. A testing arena habitat comprising a small plastic container was placed inside of a larger, secondary container. The top half inch was removed from two bathroom sized solo cups and each cup was placed on opposite sides of the testing arena habitat, one inch away from the wall. Each outer part of the cup was textured using sandpaper, as bed bugs cannot climb smooth surfaces. A paper towel was used to line the floor of the testing arena habitat. The top, removed portion of one of the solo cups was placed mouth side down in the center of the arena. In one of the cups, a cottonball was placed and treated with 100 microliters of compound or compound combination solution [comprising a total of 100 mg of compound(s).] 10 bed bugs were placed within the center cut off cup top and the testing arena habitat was covered and placed within a dark, climate controlled room overnight. The next day, the number of bed bugs that crawled into the baited cup were recorded and the % attractancy was calculated as the percentage of bugs that crawled into the baited cup as compared to the total number of bed bugs. In the Table, “Att” refers to attractancy and “Cmpd” refers to compound.

The test system of another experiment is cpB and cpC neurons. Nature of the experiment: extracellular single-sensillum electrophysiology: beta activators. The class given is in vivo, Aedes aegypti. The note with it: for Class A (beta activator, individual component): Table 15, single component alone, Beta Actv; for beta activator (stimulates cpB and cpC neuronal activity): single compound. From the text:
Three types of CO2-responsive neurons reside in the maxillary palp of mosquitoes. These include cpA, cpB and cpC neurons. […] These neurons produce spikes with much lower amplitude than those produced by cpA neurons. Although the activity from cpB and cpC neurons cannot easily be distinguished from one another, their collective activity can be distinguished from cpA neurons due to their characteristic spikes. This is useful in the identification of compounds and compositions that only activate or inhibit cpB and cpC neurons or compounds and compositions that activate or inhibit both.
Carbon dioxide receptor neurons are housed within the basiconic sensilla of the mosquito maxillary palp. While activity from cpA neurons produces the largest amplitude spike, cpB and cpC neurons present in this region are also responsive to skin odors. Activity from these neurons can also be detected through the electrophysiological methods described in Example 1.
Although the activity from cpB and cpC neurons cannot easily be distinguished from one another, their collective activity can be distinguished from cpA neurons due to their production of spikes with much lower amplitude than those produced by cpA neurons.

Where [2] appears, read: 0.25% compound, 24 hour exposure, dead larvae / total larvae.
Where [3] appears, read: 100 ppm compound, 24 hour exposure, dead larvae / total larvae.

Take `Cc1ccnc(C)c1` [OLI0001, 2,4-lutidine]: in the experiment on female mosquitoes, the mortality at 200 µg/mL was determined as 0% and the mortality at 2000 µg/mL worked out at 0%. Besides, the “effect on CO2-receptor activity (FIG. 1)” value in the experiment with cpA neurons (1% concentration in paraffin oil) was “activator”. Besides, in the experiment on cpA neurons, the Class result is on record as “Strong Activator (strong activators yield an increase in activity that is >60 spk/sec over baseline neuronal activity)” and the “activator class of single compound” value is reported as “strong activator (spike rate of 60-100 spk/sec over the baseline activity of the neuron)”. In the experiment on Aedes aegypti mosquitoes, the “behaviour in netsphere assay (attractant or repellent)” value (“behaviour in netsphere assay” for short) was “acted as a repellent”. Also, in experiment [1], the “% Rep (bed bug repellency)” value came out at 39%. The pest or weed control at 0.25 % in the experiment on larvae (setting [2]) worked out at 100%. For the same compound, in the experiment with larvae (setting [3]), the pest or weed control at 100 ppm was 0%.
As for `CCc1cnccn1` [OLI0002, 2-ethylpyrazine], in the experiment with female mosquitoes, the mortality at 200 µg/mL came to 0% and the mortality at 2000 µg/mL worked out at 0%. Moreover, in the experiment with cpA neurons, the Class result is “Strong Activator (strong activators yield an increase in activity that is >60 spk/sec over baseline neuronal activity)” and the “activator class of single compound” value is recorded as “activator”. Further, in the experiment with Aedes aegypti, the number of landings turned out to be 12 landings and the “behaviour in landing assay (lure or repellent)” value (“behaviour in landing assay” for short) is “repellent”. For the same compound, in experiment [1], the “% Rep (bed bug repellency)” value came to 49%. The pest or weed control at 0.25 % with larvae (setting [2]) was 50%. For the same compound, in the experiment with larvae (setting [3]), the pest or weed control at 100 ppm turned out to be 0%.
Consider `O=C1CCCC1` [OLI0008, cyclopentanone], for which, in the experiment with female mosquitoes, the mortality at 200 µg/mL is 0% and the mortality at 2000 µg/mL came out at 0%. Also, the Class entry in the experiment on cpA neurons is listed as “Strong Activator (strong activators yield an increase in activity that is >60 spk/sec over baseline neuronal activity)”. Besides, in the experiment on Aedes aegypti, the number of landings was found to be 39 landings and the “behaviour in landing assay” value is recorded as “act as lures”. Further, in the experiment on Aedes aegypti mosquitoes, the “behaviour in netsphere assay” value is given as “act as attractants; also recorded: attract mosquitoes”. Also, the “% Att (bed bug attractancy)” value in the experiment with bed bugs was found to be 50%. The pest or weed control at 0.25 % in the experiment with larvae (setting [2]) came out at 85%. In the experiment on larvae (setting [3]), the pest or weed control at 100 ppm was determined as 0%.
Turning to `CCCC(C)=O` [OLI0018, 2-pentanone], in the experiment with female mosquitoes, the mortality at 200 µg/mL is 0% and the mortality at 2000 µg/mL is 0%. Also, the Class result with cpA neurons was “Moderate Activator (Moderate activators yield an increase in neuronal activity that is between 40 and 60 spk/sec over baseline neuronal activity)”. In addition, the “Comp A Class” value with cpA neurons (Table 9) is reported as “Mod”. Further, the “Comp B Class” value in the experiment with cpA neurons (Table 9, component B tested individually) is on record as “Mod”. In the experiment with cpA neurons (Table 15, single component alone, Mod Actv), the “Class B (activator class of the individual component)” value is “Mod”. Further, in the experiment with Aedes aegypti, the number of landings was found to be 37 landings and the “behaviour in landing assay” value is listed as “act as lures”. Besides, in the experiment with Aedes aegypti mosquitoes, the “behaviour in netsphere assay” value is given as “act as attractants; also recorded: attract mosquitoes”. The “% Att (bed bug attractancy)” value with bed bugs came out at 30%. In the experiment on larvae (24 h), the pest or weed control at 100 ppm is 0% and the pest or weed control at 0.25 % turned out to be 0%.
In the case of `COC(=O)CCC(C)=O` [OLI0027, methyl levulinate], in the experiment with female mosquitoes, the mortality at 200 µg/mL came to 0% and the mortality at 2000 µg/mL came to 0%. Besides, in the experiment on cpA neurons, the Class result is “Moderate Activator (Moderate activators yield an increase in neuronal activity that is between 40 and 60 spk/sec over baseline neuronal activity)”; the “activator class of single compound” value is “moderate cpA activator”. For the same compound, in the experiment on cpA neurons (Table 9), the “Comp A Class” value is “Mod”. The “% Att (bed bug attractancy)” value in the experiment with bed bugs is reported as 10%. In addition, the “% Rep (bed bug repellency)” value in experiment [1] worked out at 20%. Further, in the experiment with cpB and cpC neurons, the “Class A (beta activator, individual component)” value is on record as “Beta”; the “beta activator (stimulates cpB and cpC neuronal activity)” value is on record as “beta activators”. In addition, in the experiment on larvae (setting [2]), the pest or weed control at 0.25 % was 50%. Besides, in the experiment with larvae (setting [3]), the pest or weed control at 100 ppm was 0%.
Regarding `CCCCCCOC=O` [OLI0097, hexyl formate], in the experiment on female mosquitoes, the mortality at 200 µg/mL came out at 0% and the mortality at 2000 µg/mL was found to be 0%. The “% Att (bed bug attractancy)” value with bed bugs is 30%. In addition, the “% Rep (bed bug repellency)” value in experiment [1] came to 44%. For the same compound, in the experiment on cpB and cpC neurons, the “Class A (beta activator, individual component)” value is “Beta”; the “beta activator (stimulates cpB and cpC neuronal activity)” value is on record as “beta activators”. In the experiment with larvae (24 h), the pest or weed control at 100 ppm is 0% and the pest or weed control at 0.25 % came out at 5%.
`CCC(=O)OCCC(C)C` [OLI0099, isoamyl propionate]: in the experiment with female mosquitoes, the mortality at 200 µg/mL turned out to be 0% and the mortality at 2000 µg/mL worked out at 0%. Also, the “% Att (bed bug attractancy)” value with bed bugs was determined as 10%. Moreover, in experiment [1], the “% Rep (bed bug repellency)” value is reported as 17%. Also, in the experiment on cpB and cpC neurons, the “Class A (beta activator, individual component)” value is “Beta”; the “beta activator (stimulates cpB and cpC neuronal activity)” value is “beta activators”. Also, the pest or weed control at 0.25 % in the experiment with larvae (setting [2]) was 0%. In the experiment with larvae (setting [3]), the pest or weed control at 100 ppm was 0%.
